The source made the active and inactive calls.
Columns and labels:
[1] = molecular target: Glyceraldehyde-3-phosphate dehydrogenase (Homo sapiens, UniProt P04406)
Bcl-2-related protein A1 [2] = molecular target: T1, Bcl-2-related protein A1 (Mus musculus, UniProt Q07440); experiment: small-molecule antagonists of Bfl-1/BH3 interaction – biochemical, TR-FRET, mouse Bfl-1, confirmation (AID 621);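 also: TR-FRET binding of GST-Bfl-1 to FITC-labelled Bid peptide via terbium antibody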
T1 sequence (Q07440 whole entry): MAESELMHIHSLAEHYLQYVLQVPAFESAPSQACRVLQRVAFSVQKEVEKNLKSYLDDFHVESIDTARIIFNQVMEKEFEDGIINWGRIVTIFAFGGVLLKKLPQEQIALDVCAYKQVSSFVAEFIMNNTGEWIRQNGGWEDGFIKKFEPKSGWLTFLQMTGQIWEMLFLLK

Bcl-2-related protein A1 [3] = molecular target: T1, Bcl-2-related protein A1; experiment: Bfl-1 binding inhibitors, SAR follow-up, biochemical, fluorescence polarization (AID 1070)
[4] = molecular target: Ras and Rab interactor 1/Tyrosine-protein kinase ABL1 (Homo sapiens, UniProt P00519+Q13671); format: functional;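 also: biochemical TR-FRET dose-response test measuring inhibition of binding between Rin1 and Abl proteins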
cells = format: functional
[5] = molecular target: T2, Mannose-6-phosphate isomerase (Homo sapiens, UniProt P34949); experiment: MPI inhibition at elevated mannose 6-phosphate – biochemical, fluorescence intensity, high mannose 6-phosphate, primary screen (AID 1220)
T2 sequence (P34949 whole entry): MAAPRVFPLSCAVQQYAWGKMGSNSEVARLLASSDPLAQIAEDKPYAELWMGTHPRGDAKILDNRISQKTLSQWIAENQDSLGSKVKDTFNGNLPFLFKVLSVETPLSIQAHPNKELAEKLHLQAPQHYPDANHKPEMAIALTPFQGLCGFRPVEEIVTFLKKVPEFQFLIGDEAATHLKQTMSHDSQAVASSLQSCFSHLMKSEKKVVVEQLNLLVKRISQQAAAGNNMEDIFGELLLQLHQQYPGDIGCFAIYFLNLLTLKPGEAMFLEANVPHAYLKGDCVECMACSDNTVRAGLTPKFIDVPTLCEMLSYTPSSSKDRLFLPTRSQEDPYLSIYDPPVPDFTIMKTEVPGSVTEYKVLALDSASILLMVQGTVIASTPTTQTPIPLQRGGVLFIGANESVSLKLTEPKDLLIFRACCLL

[6] = viability loss in Vero cells – cytotoxicity control for Vif-APOBEC3G degradation inhibitor project, dose response (AID 1117358); format: functional; details: Vero
[7] = molecular target: Luciferin 4-monooxygenase (Photinus pyralis, UniProt P08659); experiment: inhibition of purified Photinus pyralis luciferase – biochemical, luminescence, dose response (AID 1891)
[8] = A Cell Based Secondary Assay To Explore Cytotoxicity of Compounds that Sensitize Mycobacterium Tuberculosis to Beta-Lactam Antibiotics.; format: functional
[9] = off-target signal loss in HeLa-CEM21 co-culture – HeLa F-luc CTL cells, cherry-picked, counter-screen for HIV-1 Env fusion inhibitor project, dose response (AID 652040); format: functional, cell-based;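 also: potency for signal decrease marking cytotoxic or nonspecific inhibition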
[10] = blockers of HIV-1 envelope-mediated cell-cell fusion – cherry-pick, dose response (AID 652057); format: functional, cell-based
[11] = viability loss in CEM21 cells – cell-based, CellTiter-Glo luminescence, cherry-picked, cytotoxicity control for viral fusion inhibitor project, dose response (AID 652042); format: functional;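 also: potency for signal decrease meaning cytotoxicity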
[12] = blockade of melanocortin 4 receptor signaling – cell-based, plate reader, cherry pick, counter-screen for LGR2 antagonist project, dose response (AID 743444); format: functional;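 also: transfected HEK 293 cells stimulated with alpha-MSH peptide; potency of inhibitors of the alpha-MSH evoked signal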
[13] = blockers of bursicon-stimulated LGR2 cAMP reporter – cell-based, HEK293, CRE-luciferase reporter, cherry pick, set 2, dose response (AID 743343); format: functional;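 also: transfected cells were stimulated with diluted bursicon conditioned medium after compound addition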
[14] = molecular target: T3, Heat shock factor protein 1 (Mus musculus, UniProt P38532); experiment: decrease of HSF1-responsive luciferase luminescence – cell-based, NIH3T3, dose retest, confirmation (AID 2382); format: functional;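 also: NIH3T3 fibroblasts with HSF1-driven luciferase reporter stressed by proteasome inhibitor MG132; luminescence from HSF1-driven luciferase expression after 8 hours of MG132 stress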
T3 sequence (P38532 whole entry): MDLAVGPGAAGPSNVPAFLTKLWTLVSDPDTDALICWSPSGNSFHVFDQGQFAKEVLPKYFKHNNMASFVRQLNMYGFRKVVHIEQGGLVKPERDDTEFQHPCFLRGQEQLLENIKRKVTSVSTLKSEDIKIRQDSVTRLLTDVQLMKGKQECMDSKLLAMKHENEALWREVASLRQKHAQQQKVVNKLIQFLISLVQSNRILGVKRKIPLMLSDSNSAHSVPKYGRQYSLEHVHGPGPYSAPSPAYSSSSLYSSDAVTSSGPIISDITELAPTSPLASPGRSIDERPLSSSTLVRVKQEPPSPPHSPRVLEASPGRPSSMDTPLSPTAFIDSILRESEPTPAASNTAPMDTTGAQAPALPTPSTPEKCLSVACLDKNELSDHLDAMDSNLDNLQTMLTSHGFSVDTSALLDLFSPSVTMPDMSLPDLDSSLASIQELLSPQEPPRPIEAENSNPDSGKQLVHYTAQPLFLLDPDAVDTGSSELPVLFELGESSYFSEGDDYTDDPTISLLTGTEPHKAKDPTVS

HEK293 = experiment: EBV LMP1 TES2 canonical NF-kB signalling blockers – cell-based, HEK293, luciferase, cherry-pick, dose response (AID 588343); format: functional; details: Homo sapiens
[15] = viability loss of HPDE-C7K cells – cell-based, fluorescence, HTS, primary screen (AID 431); format: functional; details: Homo sapiens
[16] = HPDE-C7 pancreatic duct cell viability loss – fluorescence, HTS (AID 430); format: functional, cell-based; details: Homo sapiens

Chain of Ras and Rab interactor 1/Tyrosine-protein kinase ABL1 (P00519 whole entry): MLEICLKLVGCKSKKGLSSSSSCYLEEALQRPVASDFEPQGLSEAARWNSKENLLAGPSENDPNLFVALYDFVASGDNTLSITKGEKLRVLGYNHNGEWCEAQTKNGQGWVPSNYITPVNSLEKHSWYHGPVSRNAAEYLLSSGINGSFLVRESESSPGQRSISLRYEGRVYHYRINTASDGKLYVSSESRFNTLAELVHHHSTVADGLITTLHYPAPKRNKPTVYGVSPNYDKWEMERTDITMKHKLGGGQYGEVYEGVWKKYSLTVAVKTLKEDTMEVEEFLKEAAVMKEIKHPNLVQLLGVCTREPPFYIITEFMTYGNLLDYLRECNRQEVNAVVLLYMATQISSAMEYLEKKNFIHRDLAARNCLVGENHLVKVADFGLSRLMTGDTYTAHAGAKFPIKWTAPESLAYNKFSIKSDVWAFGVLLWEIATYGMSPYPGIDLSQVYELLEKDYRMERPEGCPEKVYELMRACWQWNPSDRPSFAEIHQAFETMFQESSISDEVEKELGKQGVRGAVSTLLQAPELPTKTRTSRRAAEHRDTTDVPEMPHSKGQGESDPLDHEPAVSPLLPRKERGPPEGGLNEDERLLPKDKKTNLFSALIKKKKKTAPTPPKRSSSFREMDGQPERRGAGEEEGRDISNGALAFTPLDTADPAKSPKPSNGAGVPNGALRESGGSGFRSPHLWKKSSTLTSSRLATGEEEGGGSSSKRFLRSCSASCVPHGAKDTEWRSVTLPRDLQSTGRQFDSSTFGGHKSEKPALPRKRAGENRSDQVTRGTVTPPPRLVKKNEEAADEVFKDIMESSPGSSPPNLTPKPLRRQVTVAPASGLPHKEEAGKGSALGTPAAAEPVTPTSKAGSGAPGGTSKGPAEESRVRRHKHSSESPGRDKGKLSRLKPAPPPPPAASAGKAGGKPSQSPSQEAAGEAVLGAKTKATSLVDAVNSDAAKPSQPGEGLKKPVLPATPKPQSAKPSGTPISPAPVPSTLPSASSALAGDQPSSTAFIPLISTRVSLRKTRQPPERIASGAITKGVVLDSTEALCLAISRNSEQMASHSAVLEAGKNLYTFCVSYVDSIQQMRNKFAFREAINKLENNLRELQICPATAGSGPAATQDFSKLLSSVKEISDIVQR
Chain of Ras and Rab interactor 1/Tyrosine-protein kinase ABL1 (Q13671 whole entry): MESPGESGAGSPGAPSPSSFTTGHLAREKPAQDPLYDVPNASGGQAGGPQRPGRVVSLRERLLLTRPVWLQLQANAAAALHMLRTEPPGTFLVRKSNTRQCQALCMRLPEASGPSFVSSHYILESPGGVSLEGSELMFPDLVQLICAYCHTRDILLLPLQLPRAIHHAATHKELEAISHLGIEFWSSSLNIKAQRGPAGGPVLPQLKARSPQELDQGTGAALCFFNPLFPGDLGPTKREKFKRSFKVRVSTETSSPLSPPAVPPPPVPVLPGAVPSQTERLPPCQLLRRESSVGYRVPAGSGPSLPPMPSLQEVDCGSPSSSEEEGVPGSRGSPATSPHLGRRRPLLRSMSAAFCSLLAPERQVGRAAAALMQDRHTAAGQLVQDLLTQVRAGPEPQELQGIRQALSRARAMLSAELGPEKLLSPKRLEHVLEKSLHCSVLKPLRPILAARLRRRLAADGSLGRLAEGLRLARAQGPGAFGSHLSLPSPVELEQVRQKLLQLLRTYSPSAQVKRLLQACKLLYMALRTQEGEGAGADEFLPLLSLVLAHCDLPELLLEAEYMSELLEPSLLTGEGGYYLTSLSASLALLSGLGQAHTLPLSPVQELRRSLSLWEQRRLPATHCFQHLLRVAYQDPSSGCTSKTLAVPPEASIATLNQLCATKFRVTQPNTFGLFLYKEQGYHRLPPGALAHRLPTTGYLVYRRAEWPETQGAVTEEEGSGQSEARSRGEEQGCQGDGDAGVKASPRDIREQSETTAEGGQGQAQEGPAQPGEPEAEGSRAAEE
Chain of Glyceraldehyde-3-phosphate dehydrogenase (P04406 whole entry): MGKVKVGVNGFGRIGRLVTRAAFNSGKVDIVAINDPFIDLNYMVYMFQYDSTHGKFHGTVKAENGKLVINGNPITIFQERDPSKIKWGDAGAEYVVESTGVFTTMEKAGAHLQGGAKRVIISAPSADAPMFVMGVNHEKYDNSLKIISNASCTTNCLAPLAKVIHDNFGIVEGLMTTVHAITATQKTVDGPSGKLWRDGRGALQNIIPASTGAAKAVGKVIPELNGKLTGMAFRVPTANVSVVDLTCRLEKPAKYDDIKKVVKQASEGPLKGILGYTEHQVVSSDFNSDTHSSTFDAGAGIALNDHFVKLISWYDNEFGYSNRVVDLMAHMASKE
Chain of Luciferin 4-monooxygenase (P08659 whole entry): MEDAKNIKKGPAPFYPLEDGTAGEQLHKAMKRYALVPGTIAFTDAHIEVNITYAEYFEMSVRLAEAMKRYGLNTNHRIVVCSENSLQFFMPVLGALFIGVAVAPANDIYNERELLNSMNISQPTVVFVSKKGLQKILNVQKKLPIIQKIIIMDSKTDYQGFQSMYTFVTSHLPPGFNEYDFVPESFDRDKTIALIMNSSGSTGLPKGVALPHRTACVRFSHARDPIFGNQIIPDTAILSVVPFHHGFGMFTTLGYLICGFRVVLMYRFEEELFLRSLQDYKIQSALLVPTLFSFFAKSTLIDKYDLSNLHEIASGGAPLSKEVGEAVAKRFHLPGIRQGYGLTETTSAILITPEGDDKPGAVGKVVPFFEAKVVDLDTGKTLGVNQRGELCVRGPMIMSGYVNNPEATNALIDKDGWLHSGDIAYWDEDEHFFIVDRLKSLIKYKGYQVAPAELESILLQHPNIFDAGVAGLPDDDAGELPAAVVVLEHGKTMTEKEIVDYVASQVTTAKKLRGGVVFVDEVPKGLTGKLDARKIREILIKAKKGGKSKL

O=C1C(Cl)=C(N2CCN(c3ccc(Cl)c(Cl)c3)CC2)C(=O)N1c1ccc(Cl)c(Cl)c1
IC50 [1]: > 100 µM (not active)
IC50 (Bcl-2-related protein A1 [2]): 65.5 µM (active)
IC50 (Bcl-2-related protein A1 [3]): > 100 µM (not active)

CCCCN1C(=O)N(C)C2NC(=O)NC21 (stereo not given)
IC50 [4]: 3 µM (active)

COC(=O)c1ccc(CSc2nnc(-c3ccncc3)o2)o1
IC50 (cells): 39.6 µM (active)
IC50 [4]: 11 µM (inactive)

Oc1c(CN2CCOCC2)ccc2ccccc12
IC50 [5]: > 50 µM (not active)

Cc1cc(NC(=O)CCNS(=O)(=O)c2cc(Br)cnc2N)ccc1Br
CC50 [6]: > 40 µM (active)

COc1cc(CNc2ccc3[nH]c(=O)[nH]c3c2)ccc1OCC(=O)NC(C)(C)C
EC50 [7]: > 112 µM (not active)
IC50 [5]: > 50 µM (not active)

Cc1cccc(NCCC(=O)c2ccc([N+](=O)[O-])cc2)c1C
IC50 (cells): 18 µM (active)
IC50 [5]: > 50 µM (not active)

CCOC(=O)c1ccccc1NC(=O)C1COc2ccccc2O1 (stereo not given)
CC50 [8]: > 40 µM (active)

CCN(CC)c1ccc(/C=N/N2C(C)CCCC2C)c(O)c1 (stereo not given)
AC50 [9]: > 70 µM (inactive)
AC50 [10]: 2.22 µM (active)
AC50 [11]: 48.3 µM (active)

O=C(O)c1cccc(Nc2ccnc(Nc3cccc(C(=O)O)c3)n2)c1
AC50 [12]: 2.56 µM (active)
AC50 [13]: 2.9 µM (active)
EC50 [14]: 0.281 µM (active)
AC50 (HEK293): 3.56 µM (active)

N#CC1=C(N)NC(SCc2ccc(Cl)cc2)=C(C#N)C12CCCCC2
EC50 [15]: 6.43 µM (active)
EC50 [16]: 8.84 µM (active)

CC(C)(C)c1cc(CN2CCCC(O)C2)c(O)c(C(C)(C)C)c1 (stereo not given)
EC50 [15]: 14.9 µM (active)
EC50 [16]: 15.5 µM (active)

CCOC(=O)C1=C(N)n2c(s/c(=C/c3ccco3)c2=O)=C(C(=O)OC)C1c1ccco1 (stereo not given)
CC50 [6]: > 40 µM (active)

Source: ChEMBL document CHEMBL1201862, “PubChem BioAssay data set” (2004)
